Drawing on PubChem BioAssay (NCI), this text covers GI50 and TGI for 14 compounds.

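48-hour exposure; five concentrations; linearly interpolated endpoints. The concentration for 50% growth inhibition is given as GI50. TGI denotes the concentration required for complete inhibition of growth.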 A value given as a limit tells only on which side of the number the result lay.

Among the test systems are OVCAR-3 ovarian; SR leukemia; OVCAR-8 ovarian; NCI-H23 lung; SW-620 colon; SF-295 CNS; HOP-62 NSCLC; M14 melanoma; SK-MEL-5 melanoma; SK-OV-3 ovarian.
Common to all, as to assay: NCI-60 cell line screen, 48 h

Consider `CN(C)CCN1C(=O)c2ccc3c4c(ccc(c24)C1=O)C(=O)N(CCN=C=S)C3=O`, for which the GI50 with OVCAR-3 ovarian is 0.0267 µM; with SR leukemia, less than 0.0172 µM; in the assay on OVCAR-8 ovarian, 0.0288 µM; with NCI-H23 lung, 0.162 µM; with SW-620 colon it was 0.0269 µM; in the assay with SF-295 CNS it was 0.122 µM. Moreover, the GI50 is 0.0503 µM in the assay on HOP-62 NSCLC, 0.0735 µM in the assay on M14 melanoma, 0.113 µM in the assay on SK-MEL-5 melanoma and 0.164 µM with SK-OV-3 ovarian. The TGI in the assay with OVCAR-3 ovarian was 0.0897 µM; with OVCAR-8 ovarian, 0.173 µM; in the assay with NCI-H23 lung, 0.417 µM; in the assay on SW-620 colon, 0.155 µM; in the assay on SF-295 CNS, 0.513 µM; in the assay with HOP-62 NSCLC it was 0.194 µM. In addition, the TGI in the assay on M14 melanoma is 0.216 µM; with SK-MEL-5 melanoma, 0.235 µM; in the assay on SK-OV-3 ovarian, 0.668 µM.

In the case of `CC(=O)C(=CN1CCN(C(=O)c2ccco2)C1=S)C(C)=O`, the GI50 in the assay on OVCAR-3 ovarian was 11.4 µM; in the assay with SR leukemia, 2.26 µM; in the assay with OVCAR-8 ovarian, 8.15 µM; with NCI-H23 lung, 16.4 µM; in the assay with SW-620 colon it was 14.6 µM; in the assay with SF-295 CNS it was 21.7 µM. The GI50 is 22 µM in the assay with HOP-62 NSCLC, 4.03 µM with M14 melanoma, 16.6 µM in the assay on SK-MEL-5 melanoma and 20 µM in the assay on SK-OV-3 ovarian. Also, the TGI was 35.9 µM in the assay with OVCAR-3 ovarian; more than 100 µM in the assay with SR leukemia; 45.1 µM in the assay on OVCAR-8 ovarian; 31.6 µM with NCI-H23 lung; 31.3 µM in the assay on SW-620 colon; 52.6 µM in the assay on SF-295 CNS. In addition, the TGI in the assay with HOP-62 NSCLC came to 41.7 µM; with M14 melanoma, 15.4 µM; in the assay with SK-MEL-5 melanoma, 31.5 µM; in the assay on SK-OV-3 ovarian it was 43.9 µM.

With `CC/C=C\C[C@H]1C/C=C2/C(=O)C=C[C@@H]2C/C=C\CCCC(=O)O1`, the GI50 was 0.734 µM in the assay with OVCAR-3 ovarian; 0.288 µM with SR leukemia; 0.338 µM in the assay on OVCAR-8 ovarian; 1.89 µM in the assay with NCI-H23 lung; 0.454 µM with SW-620 colon; 2.17 µM with SF-295 CNS. Also, the GI50 in the assay with HOP-62 NSCLC was 1.81 µM; in the assay with M14 melanoma, 0.599 µM; with SK-MEL-5 melanoma, 1.38 µM; in the assay with SK-OV-3 ovarian, 3.99 µM. Also, the TGI in the assay on OVCAR-3 ovarian turned out to be 3.9 µM; in the assay with OVCAR-8 ovarian it was 10.7 µM; in the assay with NCI-H23 lung it was 5.03 µM; with SW-620 colon it was 5.52 µM; in the assay on SF-295 CNS it was 5.44 µM; in the assay with HOP-62 NSCLC, 5.39 µM. Further, the TGI is 3.7 µM with M14 melanoma, 2.74 µM with SK-MEL-5 melanoma and 12.9 µM in the assay with SK-OV-3 ovarian.

Regarding `C=C1C(=O)OC2/C=C(\COC(C)=O)CCC(OC(C)=O)C3=CC(OC3=O)C12` (stereo not drawn), the TGI in the assay on OVCAR-3 ovarian stood at 12.4 µM; in the assay with SR leukemia, 16.1 µM; in the assay with OVCAR-8 ovarian, 9.6 µM; in the assay on NCI-H23 lung, 20.7 µM; in the assay on SW-620 colon, 4.47 µM; in the assay with SF-295 CNS, 32.6 µM. Besides, the TGI with HOP-62 NSCLC was 38.8 µM; with M14 melanoma, 10 µM; with SK-MEL-5 melanoma it was 26.7 µM; in the assay on SK-OV-3 ovarian it was 28.4 µM.

On to `COc1cc(/C=C/c2ccc(OC)c(OC)c2)cc(OC)c1`, for which the TGI with OVCAR-3 ovarian is 69 µM; with SR leukemia it was more than 100 µM; with OVCAR-8 ovarian it was more than 100 µM; in the assay with NCI-H23 lung, 65.3 µM; in the assay with SW-620 colon, more than 100 µM; in the assay with SF-295 CNS it was 68.9 µM. For the same compound, the TGI was more than 100 µM with HOP-62 NSCLC, 67.9 µM in the assay with M14 melanoma, 41.1 µM in the assay on SK-MEL-5 melanoma and more than 100 µM in the assay with SK-OV-3 ovarian.

Regarding `O=S(=O)(Nc1cc(Sc2cccc3cccnc23)c(O)c2ccccc12)c1ccccc1`, the GI50 is 0.817 µM in the assay on OVCAR-3 ovarian; 0.426 µM in the assay with SR leukemia; 0.631 µM in the assay on OVCAR-8 ovarian; 1.93 µM in the assay with NCI-H23 lung; 1.04 µM in the assay with SW-620 colon; 2.84 µM in the assay with SF-295 CNS. The GI50 with HOP-62 NSCLC is 1.01 µM; in the assay with M14 melanoma, 1.12 µM; in the assay with SK-MEL-5 melanoma it was 1.36 µM; with SK-OV-3 ovarian, 4.3 µM. The TGI in the assay with OVCAR-3 ovarian is 3.9 µM; with SR leukemia it was 17.2 µM; with OVCAR-8 ovarian, more than 100 µM; in the assay on NCI-H23 lung, 12.8 µM; with SW-620 colon, 11.6 µM; in the assay on SF-295 CNS, 15 µM. In addition, the TGI in the assay with HOP-62 NSCLC was determined as 25.4 µM; with M14 melanoma, 9.2 µM; in the assay on SK-MEL-5 melanoma it was 3.05 µM; in the assay on SK-OV-3 ovarian, 17.9 µM.

Take `CC1=C[C@H]2c3c(c(O)c(O)c4oc(-c5ccccc5)cc(=O)c34)[C@H](c3cc(O)c(O)c4oc(-c5ccccc5)cc(=O)c34)[C@H]2C(C)(C)C1`: the GI50 in the assay on OVCAR-3 ovarian is 1.46 µM; with SR leukemia, 0.457 µM; in the assay on OVCAR-8 ovarian, 0.68 µM; in the assay with NCI-H23 lung it was 0.375 µM; with SW-620 colon, 0.934 µM; in the assay with SF-295 CNS, 0.312 µM. Moreover, the GI50 in the assay with HOP-62 NSCLC was 0.76 µM; with M14 melanoma it was 0.887 µM; in the assay on SK-MEL-5 melanoma, 0.974 µM; in the assay on SK-OV-3 ovarian it was 1.76 µM. Further, the TGI with OVCAR-3 ovarian is 12 µM; in the assay on SR leukemia, more than 75 µM; in the assay on OVCAR-8 ovarian, more than 75 µM; with NCI-H23 lung, 2.56 µM; with SW-620 colon, 13.9 µM; in the assay on SF-295 CNS it was 1.76 µM. For the same compound, the TGI in the assay with HOP-62 NSCLC was determined as 12.9 µM; in the assay on M14 melanoma, 4.88 µM; in the assay with SK-MEL-5 melanoma, 2.16 µM; in the assay on SK-OV-3 ovarian, 10.9 µM.

`C=C1CCC(CC[C@@H]2CC[C@]3(OC2)O[C@@]2(O)CC[C@]3(C)OC2(C)C)C(C)(C)[C@H]1C/C=C1/C(=O)OC[C@@H]1O` (stereo partly drawn): the TGI with OVCAR-3 ovarian is 7.41 µM; with SR leukemia, more than 100 µM; in the assay with OVCAR-8 ovarian, 5.04 µM; with NCI-H23 lung, 5.2 µM; in the assay on SW-620 colon, 12.6 µM; with SF-295 CNS, 10.5 µM. Besides, the TGI turned out to be 19.9 µM in the assay on HOP-62 NSCLC, 12.3 µM with M14 melanoma, 1.72 µM in the assay on SK-MEL-5 melanoma and 16.6 µM with SK-OV-3 ovarian.

`ClCc1cccc(Cn2cnc3nc(Cl)nc(Cl)c32)c1`: the GI50 in the assay with OVCAR-3 ovarian was 1.53 µM; in the assay with SR leukemia it was 0.233 µM; in the assay with OVCAR-8 ovarian it was 9.24 µM; in the assay on NCI-H23 lung it was 1.29 µM; with SW-620 colon, 0.419 µM; with SF-295 CNS it was 2.02 µM. The GI50 was 1.99 µM in the assay with HOP-62 NSCLC, 0.854 µM in the assay on M14 melanoma, 0.614 µM with SK-MEL-5 melanoma and 8.41 µM with SK-OV-3 ovarian. In addition, the TGI in the assay with OVCAR-3 ovarian turned out to be 2.86 µM; with SR leukemia, 2.6 µM; in the assay with OVCAR-8 ovarian it was 21.2 µM; in the assay with NCI-H23 lung it was 2.56 µM; in the assay on SW-620 colon it was 1.67 µM; in the assay with SF-295 CNS it was 3.78 µM. Moreover, the TGI stood at 3.44 µM in the assay with HOP-62 NSCLC, 2.28 µM with M14 melanoma, 1.94 µM in the assay on SK-MEL-5 melanoma and 22 µM in the assay with SK-OV-3 ovarian.

Consider `S=C1OC2CCCC[C@H]2O1` (stereo partly drawn), for which the TGI in the assay with OVCAR-3 ovarian, in the assay on SR leukemia, in the assay on OVCAR-8 ovarian, with NCI-H23 lung, in the assay with SW-620 colon and in the assay with SF-295 CNS was more than 100 µM throughout. The TGI in the assay on HOP-62 NSCLC, in the assay on M14 melanoma, with SK-MEL-5 melanoma and in the assay on SK-OV-3 ovarian was more than 100 µM each time.

For the compound `COc1ccc(CC2NCCc3cc(OC)c(OC)cc32)cc1Br` (stereo not drawn), the TGI was more than 100 µM with OVCAR-3 ovarian; 74.6 µM in the assay with SR leukemia; more than 100 µM with OVCAR-8 ovarian; 85.7 µM in the assay with NCI-H23 lung; more than 70.5 µM in the assay on SW-620 colon; 86.7 µM with SF-295 CNS. Further, the TGI with HOP-62 NSCLC was more than 100 µM; in the assay with M14 melanoma it was 31 µM; with SK-MEL-5 melanoma it was 19.9 µM; with SK-OV-3 ovarian, more than 100 µM.

With `COc1ccc(C(=O)COc2ccc(/C=C3\COc4ccc(OC)cc4C3=O)cc2)cc1`, the GI50 in the assay with OVCAR-3 ovarian is 21 µM; with SR leukemia, 2.09 µM; in the assay on OVCAR-8 ovarian it was 18.4 µM; in the assay with NCI-H23 lung it was 9.67 µM; in the assay with SW-620 colon, 4.99 µM; with SF-295 CNS, 14.5 µM. The GI50 in the assay on HOP-62 NSCLC was 24.8 µM; in the assay on M14 melanoma, 39.7 µM; in the assay with SK-MEL-5 melanoma, 24.6 µM; in the assay with SK-OV-3 ovarian, 30.6 µM. Further, the TGI in the assay with OVCAR-3 ovarian was 62.2 µM; with SR leukemia it was 5.91 µM; with OVCAR-8 ovarian it was 66.5 µM; in the assay on NCI-H23 lung, 32.8 µM; with SW-620 colon, more than 100 µM; with SF-295 CNS, 38.1 µM. For the same compound, the TGI with HOP-62 NSCLC was 47.7 µM; in the assay with M14 melanoma it was more than 100 µM; in the assay on SK-MEL-5 melanoma, more than 100 µM; in the assay on SK-OV-3 ovarian, 81 µM.

On to `N#Cc1cccnc1Cl`, for which the TGI with OVCAR-3 ovarian, in the assay on SR leukemia, in the assay with OVCAR-8 ovarian, in the assay on NCI-H23 lung, with SW-620 colon and in the assay on SF-295 CNS was more than 100 µM throughout. The TGI with HOP-62 NSCLC is more than 31.6 µM; in the assay on M14 melanoma, more than 100 µM; in the assay on SK-MEL-5 melanoma, more than 100 µM; in the assay on SK-OV-3 ovarian it was more than 100 µM.

Consider `O=C1CC2CCCC23CC2(CCN13)OCCO2` (stereo not drawn), for which the TGI in the assay on OVCAR-3 ovarian, in the assay on SR leukemia, with OVCAR-8 ovarian, in the assay with NCI-H23 lung, in the assay with SW-620 colon and in the assay on SF-295 CNS was more than 100 µM each time. Further, the TGI in the assay on HOP-62 NSCLC, in the assay with M14 melanoma, in the assay with SK-MEL-5 melanoma and in the assay with SK-OV-3 ovarian was more than 100 µM each time.
